Patent US20200022967A1, “Use of 2-carboxamide cycloamino urea derivatives in the treatment of EGFR dependent diseases or diseases that have acquired resistance to agents that target EGFR family members” (Novartis AG, priority 2010, published 2020)

Legend:
BT-474 tumors = assay: BT474 orthotopic breast cancer xenograft, antitumor activity (Example 1); format: in vivo, mice
Protocol: (§1) Experiments were performed in female HsdNpa:Athymic Nude-nu mice approximately 8-12 weeks of age at treatment start. All animals were housed under Optimized Hygienic conditions in Makrolon type III cages (max. 10 animals per cage) with free access to food and water.
BT-474 cells, which are human breast ductal carcinoma cells and ErbB2 amplified with a PIK3CA mutation K111N, were grown in DMEM culture medium containing 4.5 g/l glucose supplemented with 10% heat-inactivated FCS, 2 mM L-glutamine, 1 mM sodium pyruvate and incubated at 37° C. in a 5% CO2 humidified atmosphere. Cell culture reagents were purchased from BioConcept (Allschwil, Switzerland).
BT-474 tumors were established in vivo by injection 3×10^6 cells in 30 μl HBSS (Sigma # H8264) containing 1 mg/ml Matrigel (BD #34234) orthotopically into the 3rd mammary gland on the right side of the animals. The efficacy experiments started when the tumors reached an average size of approximately 130 mm^3 (day 14-16 post cell injection). The PK/PD experiment was performed when the tumors reached a size of 150-250 m m^3 (day 22 after cell injection). On the day of cell injection, a 0.025 17β Estradiol pellent has been implanted subcutaneously on the left flank into each experimental animal under Forene® inhalation narcosis.
The Compound was fully dissolved in NMP. Then, PEG300 and liquified Solutol were added (in sequence with vortexing after addition of each reagent). Water was added immediately prior to administration to the animals. Compound A or vehicle was administered orally at a volume of 10 ml/kg.
(§2) Tumor volumes were measured with calipers and determined according to the formula: length×diameter^2×π/6. […] Regressions (%) were calculated according to the formula ((mean tumor volume at end of treatment-mean tumor volume at start of treatment)/mean tumor volume at start of treatment)×100. Body weights and tumor volumes were recorded twice a week.
(§3) Where applicable, data is presented as mean±SEM. For all tests, the level of significance was set at p<0.05. For tumor volumes, comparisons between treatment groups and vehicle control group were done using one-way ANOVA followed by Dunnett's test. The level of significance of body weight change within a group between the start and the end of the treatment period was determined using a paired t-test. Comparisons of delta body weights between treatment and vehicle control groups were performed by a one-way ANOVA followed by a post hoc Dunnett's test.
In the first experiment, Compound A was orally administered daily to BT-474 orthotopic xenografts, tumor-bearing nude mice at a dose of 50 mg/kg. […] Compound A administered orally at 50 mg/kg once daily produces a mean tumor change of tumor volume of −29.7±15.6 mm^3 (p<0.01, ANOVA and post-hoc Dunnett's) as compared to vehicle (mean tumor change of 315.1±16.4 mm^3), with a 23.0% regression in the first experiment.
In a second experiment, Compound A was orally administered daily to BT-474 orthotopic xenografts, tumor-bearing nude mice at doses of 12.5, 25 and 50 mg/kg. […] (See FIG. 1). Compound A administered orally at 12.5, 25 and 50 mg/kg once daily produces a mean change of tumor volume of 171.8±33.0 mm^3 (p<0.01, ANOVA and post-hoc Dunnett's), 95.5±26.5 mm^3 (p<0.01, ANOVA and post-hoc Dunnett's), and 20.8±15.9 mm^3 (p<0.01, ANOVA and post-hoc Dunnett's) respectively as compared to vehicle (mean change of tumor volume of 557.7±79.0 mm^3) in the second experiment. (See FIG. 3)

HCC1954 = assay: Cell proliferation in HCC1954 breast cancer model; format: cell-based
NCI-N87 tumors = assay: NCI-N87 subcutaneous gastric cancer xenograft, antitumor activity (Example 2); format: in vivo, mice; settings: 50 mg/kg p.o. once daily
Protocol: as §1
NCI-N87 cells (obtained from the American Type Culture Collection), which are of gastric origin and ErbB2 amplified, were grown in DMEM culture medium containing 4.5 g/l glucose supplemented with 10% heat-inactivated FCS, 2 mM L-glutamine, and 1 mM sodium pyruvate. The cells were incubated at 37° C. in a 5% CO2 humidified atmosphere. Cells were harvested with trypsin (0.25% w/v)-EDTA (0.53 mM), re-suspended in culture medium (with additives) and counted with a Casy® system. Cell culture reagents were purchased from BioConcept (Allschwil, Switzerland).
NCI-N87 tumors were established from fragments of approximately 40 mg implanted subcutaneously into the female HsdNpa:Athymic Nude-nu mice with a trocar needle. Treatment started when the tumors reached a size of approximately 110 mm^3, 25 days post implantation.
The Compound was fully dissolved in NMP. Then, PEG300 and liquified Solutol were added (in sequence with vortexing after addition of each reagent). Water was added immediately prior to administration to the animals.
as §2
as §3, with “Comparisons of delta body weights between treatment and vehicle control groups were performed by a one-way ANOVA followed by a post hoc Dunnett's test.” left out

[1] = Body weight nadir and deaths in NCI-N87 trastuzumab study (Example 4); format: in vivo, mice
Excerpt: Treatments started 9 days post tumor cell implantation and lasted for 30 consecutive days (or until tumor volume=2000 mm^3).

[2] = Body weight change in NCI-N87 xenograft mice (Example 2); format: in vivo; settings: 50 mg/kg p.o. once daily; not significant
Protocol: as §2, §3

BT474 = assay: Cell proliferation in BT474 breast cancer model; format: cell-based, human
[3] = Group 3: Compound A 25 mg/kg p.o. once daily
[4] = Group 4: Compound A 50 mg/kg p.o. once daily

Q: Which results are given for `Cc1nc(NC(=O)N2CCC[C@H]2C(N)=O)sc1-c1ccnc(C(C)(C)C(F)(F)F)c1` [Compound A, (S)-Pyrrolidine-1,2-dicarboxylic acid 2-amide 1-({4-methyl-5-[2-(2,2,2-trifluoro-1,1-dimethyl-ethyl)-pyridin-4-yl]-thiazol-2-yl}-amide)]?
A: antitumor effect as compared to vehicle (BT-474 tumors; 12.5, 25 and 50 mg/kg p.o. once daily, p<0.05 ANOVA): statistically significant antitumor effect; regression (BT-474 tumors; first experiment, 50 mg/kg p.o. once daily): 23.0%; mean change of tumor volume (BT-474 tumors; first experiment, 50 mg/kg p.o. once daily, vehicle 315.1±16.4): −29.7±15.6 mm^3; mean change of tumor volume (BT-474 tumors; second experiment, 12.5 mg/kg p.o. once daily, vehicle 557.7±79.0): 171.8±33.0 mm^3; mean change of tumor volume (BT-474 tumors; second experiment, 25 mg/kg p.o. once daily, vehicle 557.7±79.0): 95.5±26.5 mm^3; mean change of tumor volume (BT-474 tumors; second experiment, 50 mg/kg p.o. once daily, vehicle 557.7±79.0): 20.8±15.9 mm^3; cell death (HCC1954; HCC1954, overexpressed ErbB2): induces cell death; GI50 (HCC1954; HCC1954 breast cancer model, read-out: median GI50): 687 ± 132 nM; regression (NCI-N87 tumors): 11%; antitumor effect as compared to vehicle (NCI-N87 tumors; p<0.05 ANOVA): statistically significant antitumor effect; mean change of tumor volume (NCI-N87 tumors; vehicle 694.0±93.5): −11.8±17.2 mm^3; Deaths (TR/NTR) ([1]; Group 2 (8 animals): Compound A 12.5 mg/kg p.o. once daily): 0; Mean BW Nadir (lowest group mean BW) ([1]; Group 2: Compound A 12.5 mg/kg p.o. once daily, Day 22): −7% (Day 22); Deaths NTR = non-treatment related [1, 3]: NTR: 1; Deaths TR = treatment-related [1, 3]: TR: 1; Mean BW Nadir (lowest group mean BW) ([1]; Group 3: Compound A 25 mg/kg p.o. once daily, Day 26): −12.2% (Day; Deaths NTR = non-treatment related [1, 4]: NTR: 0; Deaths TR = treatment-related [1, 4]: TR: 4; Mean BW Nadir (lowest group mean BW) ([1]; Group 4: Compound A 50 mg/kg p.o. once daily, Day 12): −13.1% (Day; mean change of body weight [2]: 3.8±2.1%; cell death (BT474; BT474, overexpressed ErbB2): induces cell death; GI50 (BT474; BT474 breast cancer model, ErbB2 amplified, read-out: median GI50): 139 ± 82 nM
